Experiments:
lambsquarters [1] = test: Test Example 5: herbicidal effect by foliage application, plastic box (Table 20, symbol O); format: in vivo, lambsquarters (Chenopodium album); settings: foliage application, 320 g/ha, evaluated three weeks after application
How it was run: (§1)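 Sow seeds spot-wise in sterilized diluvial soil; cover with ~1.5 cm soil. Grow 14 days in greenhouse, 25° C. to 30° C. Spray foliage with emulsion diluted to predetermined amount. Rate effect after 3 weeks.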

persian speedwell [2] = test: Test Example 4: herbicidal effect by soil treatment (Table 19, symbol R); format: in vivo, Persian speedwell (Veronica persica)
How it was run: (§2)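 Applied as a water-diluted emulsion, the compound was sprayed onto soil covering newly sown seeds. Evaluation came three weeks after application, in a greenhouse held at 25° C. to 30° C.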

barnyard grass [3] = test: Test Example 5: herbicidal effect by foliage application, plastic box (Table 20, symbol H); format: in vivo, barnyard grass (Echinochloa crus-galli); settings: foliage application, 320 g/ha, evaluated three weeks after application
How it was run: as §1

green foxtail [4] = test: Test Example 5: herbicidal effect by foliage application, plastic box (Table 20, symbol G); format: in vivo, green foxtail (Setaria viridis); settings: foliage application, 320 g/ha, evaluated three weeks after application
How it was run: as §1

blackgrass [5] = test: Test Example 4: herbicidal effect by soil treatment (Table 19, symbol J); format: in vivo, blackgrass (Alopecurus myosuroides)
How it was run: as §2

barnyard grass [6] = test: Test Example 3: herbicidal effect by foliage application, Wagner pot (Table 18, symbol H); format: in vivo, barnyard grass (Echinochloa crus-galli)
How it was run: (§3)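 Plants were sown in alluvial soil held under 0.1–0.5 cm standing water and grown 14 days in a greenhouse at 25–30 °C. An emulsifiable formulation, water-diluted to the set dose, was then sprayed onto the foliage, and effects were scored three weeks later using previously defined criteria.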

Italian ryegrass [7] = test: Test Example 4: herbicidal effect by soil treatment (Table 19, symbol K); format: in vivo, Italian ryegrass (Lolium multiflorum)
How it was run: as §2

barnyard grass [8] = test: Test Example 4: herbicidal effect by soil treatment (Table 19, symbol H); format: in vivo, barnyard grass (Echinochloa crus-galli)
How it was run: as §2

green foxtail [9] = test: Test Example 4: herbicidal effect by soil treatment (Table 19, symbol G); format: in vivo, green foxtail (Setaria viridis)
How it was run: as §2

wild oat [10] = test: Test Example 5: herbicidal effect by foliage application, plastic box (Table 20, symbol I); format: in vivo, wild oat (Avena fatua); settings: foliage application, 320 g/ha, evaluated three weeks after application
How it was run: as §1

Chinese sprangletop = test: Test Example 3: herbicidal effect by foliage application, Wagner pot (Table 18, symbol D); format: in vivo, chinese sprangletop (Leptochloa chinensis)
How it was run: as §3

Italian ryegrass [11] = test: Test Example 5: herbicidal effect by foliage application, plastic box (Table 20, symbol K); format: in vivo, Italian ryegrass (Lolium multiflorum); settings: foliage application, 320 g/ha, evaluated three weeks after application
How it was run: as §1

chickweed [12] = test: Test Example 5: herbicidal effect by foliage application, plastic box (Table 20, symbol P); format: in vivo, common chickweed (Stellaria media); settings: foliage application, 320 g/ha, evaluated three weeks after application
How it was run: as §1

windgrass [13] = test: Test Example 4: herbicidal effect by soil treatment (Table 19, symbol L); format: in vivo, windgrass (Apera spica-venti)
How it was run: as §2

southern crabgrass [14] = test: Test Example 4: herbicidal effect by soil treatment (Table 19, symbol F); format: in vivo, southern crabgrass (Digitaria ciliaris)
How it was run: as §2

wild oat [15] = test: Test Example 4: herbicidal effect by soil treatment (Table 19, symbol I); format: in vivo, wild oat (Avena fatua)
How it was run: as §2

blackgrass [16] = test: Test Example 5: herbicidal effect by foliage application, plastic box (Table 20, symbol J); format: in vivo, blackgrass (Alopecurus myosuroides); settings: foliage application, 320 g/ha, evaluated three weeks after application
How it was run: as §1

redroot pigweed [17] = test: Test Example 5: herbicidal effect by foliage application, plastic box (Table 20, symbol N); format: in vivo, redroot pigweed (Amaranthus retroflexus); settings: foliage application, 320 g/ha, evaluated three weeks after application
How it was run: as §1

windgrass [18] = test: Test Example 5: herbicidal effect by foliage application, plastic box (Table 20, symbol L); format: in vivo, windgrass (Apera spica-venti); settings: foliage application, 320 g/ha, evaluated three weeks after application
How it was run: as §1

chickweed [19] = test: Test Example 4: herbicidal effect by soil treatment (Table 19, symbol P); format: in vivo, common chickweed (Stellaria media)
How it was run: as §2

rice flat sedge = test: Test Example 3: herbicidal effect by foliage application, Wagner pot (Table 18, symbol E); format: in vivo, rice flat sedge (Cyperus iria)
How it was run: as §3

persian speedwell [20] = test: Test Example 5: herbicidal effect by foliage application, plastic box (Table 20, symbol R); format: in vivo, Persian speedwell (Veronica persica); settings: foliage application, 320 g/ha, evaluated three weeks after application
How it was run: as §1

redroot pigweed [21] = test: Test Example 4: herbicidal effect by soil treatment (Table 19, symbol N); format: in vivo, redroot pigweed (Amaranthus retroflexus)
How it was run: as §2

lambsquarters [22] = test: Test Example 4: herbicidal effect by soil treatment (Table 19, symbol O); format: in vivo, lambsquarters (Chenopodium album)
How it was run: as §2

southern crabgrass [23] = test: Test Example 5: herbicidal effect by foliage application, plastic box (Table 20, symbol F); format: in vivo, southern crabgrass (Digitaria ciliaris); settings: foliage application, 320 g/ha, evaluated three weeks after application
How it was run: as §1

velvetleaf [24] = test: Test Example 5: herbicidal effect by foliage application, plastic box (Table 20, symbol M); format: in vivo, velvetleaf (Abutilon theophrasti); settings: foliage application, 320 g/ha, evaluated three weeks after application
How it was run: as §1

velvetleaf [25] = test: Test Example 4: herbicidal effect by soil treatment (Table 19, symbol M); format: in vivo, velvetleaf (Abutilon theophrasti)
How it was run: as §2

[26] = amount of applied herbicide 320 g/ha

SMILES: C#CCOc1ccc(-c2sc3ccc(F)cc3c2-c2c(OCC#C)c(C)nn(C)c2=O)cc1 [2-054]
- herbicidal effect on O: lambsquarters (lambsquarters [1]): 3 (Herbicidal rate of 40% or more and less than 70%)
- herbicidal effect rating, R: persian speedwell (persian speedwell [2]; 320 g/ha): 3 (Herbicidal rate of 40% or more and less than 70%)
- herbicidal effect on H: barnyard grass (barnyard grass [3]): 3 (Herbicidal rate of 40% or more and less than 70%)
- herbicidal effect on G: green foxtail (green foxtail [4]): 3 (Herbicidal rate of 40% or more and less than 70%)
- herbicidal effect rating, J: blackgrass (blackgrass [5]; 320 g/ha): 0 (Herbicidal rate of 5% or less (almost no effect))
- herbicidal effect on H (barnyard grass), rating 0-5 (barnyard grass [6]; 320 g/ha): 4 (Herbicidal rate of 70% or more and less than 90%)
- herbicidal effect rating, K: Italian ryegrass (Italian ryegrass [7]; 320 g/ha): 0 (Herbicidal rate of 5% or less (almost no effect))
- herbicidal effect rating, H: barnyard grass (barnyard grass [8]; 320 g/ha): 0 (Herbicidal rate of 5% or less (almost no effect))
- herbicidal effect rating, G: green foxtail (green foxtail [9]; 320 g/ha): 0 (Herbicidal rate of 5% or less (almost no effect))
- herbicidal effect on I: wild oat (wild oat [10]): 0 (Herbicidal rate of 5% or less (almost no effect))
- herbicidal effect on D (Chinese sprangletop), rating 0-5 (Chinese sprangletop; 320 g/ha): 5 (Herbicidal rate of 90% or more (almost completely withered))
- herbicidal effect on K: Italian ryegrass (Italian ryegrass [11]): 0 (Herbicidal rate of 5% or less (almost no effect))
- herbicidal effect on P: chickweed (chickweed [12]): 5 (Herbicidal rate of 90% or more (almost completely withered))
- herbicidal effect rating, L: windgrass (windgrass [13]; 320 g/ha): 0 (Herbicidal rate of 5% or less (almost no effect))
- herbicidal effect rating, F: southern crabgrass (southern crabgrass [14]; 320 g/ha): 0 (Herbicidal rate of 5% or less (almost no effect))
- herbicidal effect rating, I: wild oat (wild oat [15]; 320 g/ha): 0 (Herbicidal rate of 5% or less (almost no effect))
- herbicidal effect on J: blackgrass (blackgrass [16]): 0 (Herbicidal rate of 5% or less (almost no effect))
- herbicidal effect on N: redroot pigweed (redroot pigweed [17]): 4 (Herbicidal rate of 70% or more and less than 90%)
- herbicidal effect on L: windgrass (windgrass [18]): 0 (Herbicidal rate of 5% or less (almost no effect))
- herbicidal effect rating, P: chickweed (chickweed [19]; 320 g/ha): 0 (Herbicidal rate of 5% or less (almost no effect))
- herbicidal effect on E (rice flat sedge), rating 0-5 (rice flat sedge; 320 g/ha): 3 (Herbicidal rate of 40% or more and less than 70%)
- herbicidal effect on R: persian speedwell (persian speedwell [20]): 5 (Herbicidal rate of 90% or more (almost completely withered))
- herbicidal effect rating, N: redroot pigweed (redroot pigweed [21]; 320 g/ha): 3 (Herbicidal rate of 40% or more and less than 70%)
- herbicidal effect rating, O: lambsquarters (lambsquarters [22]; 320 g/ha): 0 (Herbicidal rate of 5% or less (almost no effect))
- herbicidal effect on F: southern crabgrass (southern crabgrass [23]): 0 (Herbicidal rate of 5% or less (almost no effect))
- herbicidal effect on M: velvetleaf (velvetleaf [24]): 4 (Herbicidal rate of 70% or more and less than 90%)
- herbicidal effect rating, M: velvetleaf (velvetleaf [25]; 320 g/ha): 0 (Herbicidal rate of 5% or less (almost no effect))

SMILES: Cc1ccc2sc(-c3ccc(F)cc3)c(-c3c(O)c(C)nn(C)c3=O)c2c1 [2-134]
- herbicidal effect on O: lambsquarters (lambsquarters [1]): 4 (Herbicidal rate of 70% or more and less than 90%)
- R: persian speedwell, herbicidal effect rating (persian speedwell [2]; [26]): 4 (Herbicidal rate of 70% or more and less than 90%)
- herbicidal effect on H: barnyard grass (barnyard grass [3]): 0 (Herbicidal rate of 5% or less (almost no effect))
- herbicidal effect on G: green foxtail (green foxtail [4]): 0 (Herbicidal rate of 5% or less (almost no effect))
- J: blackgrass, herbicidal effect rating (blackgrass [5]; [26]): 0 (Herbicidal rate of 5% or less (almost no effect))
- herbicidal effect on H: barnyard grass (barnyard grass [6]; [26]): 3 (Herbicidal rate of 40% or more and less than 70%)
- K: Italian ryegrass, herbicidal effect rating (Italian ryegrass [7]; [26]): 0 (Herbicidal rate of 5% or less (almost no effect))
- H: barnyard grass, herbicidal effect rating (barnyard grass [8]; [26]): 0 (Herbicidal rate of 5% or less (almost no effect))
- G: green foxtail, herbicidal effect rating (green foxtail [9]; [26]): 0 (Herbicidal rate of 5% or less (almost no effect))
- herbicidal effect on I: wild oat (wild oat [10]): 0 (Herbicidal rate of 5% or less (almost no effect))
- herbicidal effect on D: Chinese sprangletop (Chinese sprangletop; [26]): 0 (Herbicidal rate of 5% or less (almost no effect))
- herbicidal effect on K: Italian ryegrass (Italian ryegrass [11]): 3 (Herbicidal rate of 40% or more and less than 70%)
- herbicidal effect on P: chickweed (chickweed [12]): 5 (Herbicidal rate of 90% or more (almost completely withered))
- L: windgrass, herbicidal effect rating (windgrass [13]; [26]): 0 (Herbicidal rate of 5% or less (almost no effect))
- F: southern crabgrass, herbicidal effect rating (southern crabgrass [14]; [26]): 2 (Herbicidal rate of 20% or more and less than 40%)
- I: wild oat, herbicidal effect rating (wild oat [15]; [26]): 0 (Herbicidal rate of 5% or less (almost no effect))
- herbicidal effect on J: blackgrass (blackgrass [16]): 0 (Herbicidal rate of 5% or less (almost no effect))
- herbicidal effect on N: redroot pigweed (redroot pigweed [17]): 5 (Herbicidal rate of 90% or more (almost completely withered))
- herbicidal effect on L: windgrass (windgrass [18]): 0 (Herbicidal rate of 5% or less (almost no effect))
- P: chickweed, herbicidal effect rating (chickweed [19]; [26]): 4 (Herbicidal rate of 70% or more and less than 90%)
- herbicidal effect on E: rice flat sedge (rice flat sedge; [26]): 5 (Herbicidal rate of 90% or more (almost completely withered))
- herbicidal effect on R: persian speedwell (persian speedwell [20]): 5 (Herbicidal rate of 90% or more (almost completely withered))
- N: redroot pigweed, herbicidal effect rating (redroot pigweed [21]; [26]): 5 (Herbicidal rate of 90% or more (almost completely withered))
- O: lambsquarters, herbicidal effect rating (lambsquarters [22]; [26]): 5 (Herbicidal rate of 90% or more (almost completely withered))
- herbicidal effect on F: southern crabgrass (southern crabgrass [23]): 0 (Herbicidal rate of 5% or less (almost no effect))
- herbicidal effect on M: velvetleaf (velvetleaf [24]): 5 (Herbicidal rate of 90% or more (almost completely withered))
- M: velvetleaf, herbicidal effect rating (velvetleaf [25]; [26]): 0 (Herbicidal rate of 5% or less (almost no effect))

Reference: US20230085307A1, “PYRIDAZINONE COMPOUND AND HERBICIDE” (NISSAN CHEMICAL CORPORATION, priority 2019, published 2023)
